Publication PMC2713172 (Biochemistry, 2008)

Key:
CYP2C9 F100L mutant [1] = biological target: T1, CYP2C9 F100L mutant (Homo sapiens, UniProt P11712, F100L)
CYP2C9 F114L mutant [2] = biological target: T2, CYP2C9 F114L mutant (Homo sapiens, UniProt P11712, F114L)
CYP2C9 F476L mutant [3] = biological target: T3, CYP2C9 F476L mutant (Homo sapiens, UniProt P11712, F476L); details: F476L
CYP2C9 F114W mutant [4] = biological target: T4, CYP2C9 F114W mutant (Homo sapiens, UniProt P11712, F114W)
CYP2C9 F476W mutant [5] = biological target: T5, CYP2C9 F476W mutant (Homo sapiens, UniProt P11712, F476W)
[6] = biological target: T6, CYP2C9 F114L/F476L double mutant (Homo sapiens, UniProt P11712, F114L/F476L)
wild-type CYP2C9 [7] = biological target: T7, wild-type CYP2C9 (Homo sapiens, UniProt P11712)
CYP2C9 F100L mutant [8] = biological target: T1, CYP2C9 F100L mutant; remark: listed apart in the source
CYP2C9 F114L mutant [9] = biological target: T2, CYP2C9 F114L mutant; remark: listed apart in the source
CYP2C9 F476L mutant [10] = biological target: T3, CYP2C9 F476L mutant
CYP2C9 F114W mutant [11] = biological target: T4, CYP2C9 F114W mutant; remark: listed apart in the source
CYP2C9 F476W mutant [12] = biological target: T5, CYP2C9 F476W mutant; remark: listed apart in the source
[13] = biological target: T6, CYP2C9 F114L/F476L double mutant; remark: listed apart in the source
[14] = biological target: CYP2C9 F114W/F476W double mutant (Homo sapiens, UniProt P11712, F114W/F476W)
wild-type CYP2C9 [15] = biological target: T7, wild-type CYP2C9; remark: listed apart in the source
wild-type CYP2C9 [16] = biological target: T7, wild-type CYP2C9; details: wild-type CYP2C9
CYP2C9 = details: structure 1OG5; cited from earlier work
wild-type CYP2C9 [17] = biological target: T7, wild-type CYP2C9; details: WT
[18] = substrate: CC(=O)C[C@@H](c1ccccc1)c1c(O)c2ccccc2oc1=O; assay: purified protein, by the assay type; details: other: WT; substrate hydroxylation; 37.0 °C

## CC(=O)C[C@@H](c1ccccc1)c1c(O)c2ccccc2oc1=O [(S)-warfarin, (S)-Warfarin]
CYP2C9 F100L mutant [1]
  percent of wild-type kcat/Km: 133%
CYP2C9 F114L mutant [2]
  percent of wild-type kcat/Km: 2%
CYP2C9 F476L mutant [3]
  percent of wild-type kcat/Km: 2%
CYP2C9 F114W mutant [4]
  percent of wild-type kcat/Km: 83%
CYP2C9 F476W mutant [5]
  percent of wild-type kcat/Km: 500%
[6]
  percent of wild-type kcat/Km: 0.4%
wild-type CYP2C9 [7]
  ΔAmax (maximum observed difference 390–420 nm): 5.3 ± 0.1 ×10^−3
wild-type CYP2C9 [7]; Wild-type
  percent of wild-type ΔA/K: 100%
CYP2C9 F100L mutant [8]
  ΔAmax (maximum observed difference 390–420 nm): 6.5 ± 0.06 ×10^−3
CYP2C9 F100L mutant [8]; F100L
  percent of wild-type ΔA/K: 262%
CYP2C9 F114L mutant [9]
  ΔAmax (maximum observed difference 390–420 nm): 10 ± 0.07 ×10^−3
CYP2C9 F114L mutant [9]; F114L
  percent of wild-type ΔA/K: 139%
CYP2C9 F476L mutant [10]
  ΔAmax (maximum observed difference 390–420 nm): 11 ± 0.2 ×10^−3
CYP2C9 F114W mutant [11]
  ΔAmax (maximum observed difference 390–420 nm): 12 ± 0.3 ×10^−3
CYP2C9 F114W mutant [11]; F114W
  percent of wild-type ΔA/K: 636%
CYP2C9 F476W mutant [12]
  ΔAmax (maximum observed difference 390–420 nm): 9.3 ± 0.1 ×10^−3
CYP2C9 F476W mutant [12]; F476W
  percent of wild-type ΔA/K: 225%
[13]
  ΔAmax (maximum observed difference 390–420 nm): 15 ± 0.3 ×10^−3
[13]; F114L/F476L
  percent of wild-type ΔA/K: 75%
[14]
  ΔAmax (maximum observed difference 390–420 nm): 12 ± 0.2 ×10^−3
[14]; F114W/F476W
  percent of wild-type ΔA/K: 303%
wild-type CYP2C9 [15]
  distance from the heme to all ring protons: 6–7 Å
  distance from the heme to the acetonyl methyl group: ~ 9 Å
wild-type CYP2C9 [16]
  coupling of hydroxylation to NADPH consumption: ~ 4%
CYP2C9
  distance above the heme in crystal structure: ~ 10 Å
wild-type CYP2C9 [17]
  percent of wild-type kcat/Km: 100%

B1: wild-type CYP2C9 (Homo sapiens) (protein)
chain: MALLLAVFLCLSCLLLLSLWRQSSGRGKLPPGPTPLPVIGNILQIGIKDISKSLTNLSKVYGPVFTLYFGLKPIVVLHGYEAVKEALIDLGEEFSGRGIFPLAERANRGFGIVFSNGKKWKEIRRFSLMTLRNFGMGKRSIEDRVQEEARCLVEELRKTKASPCDPTFILGCAPCNVICSIIFHKRFDYKDQQFLNLMEKLNENIKILSSPWIQICNNFSPIIDYFPGTHNKLLKNVAFMKSYILEKVKEHQESMDMNNPQDFIDCFLMKMEKEKHNQPSEFTIESLENTAVDLFGAGTETTSTTLRYALLLLLKHPEVTAKVQEEIERVIGRNRSPCMQDRSHMPYTDAVVHEVQRYIDLLPTSLPHAVTCDIKFRNYLIPKGTTILISLTSVLHDNKEFPNPEMFDPHHFLDEGGNFKKSKYFMPFSAGKRICVGEALAGMELFLFLTSILQNFNLKSLVDPKNLDTTPVVNGFASVPPFYQLCFIPV
[18]
  Km: 4.1 ± 0.3 µM
  kcat: 0.00417 ± 6.7e-05 s⁻¹
  kcat/Km: 0.06 (100) min^−1 μM^−1
